Columns and labels:
Format in all cases: in vivo
[1] = system: Echinochloa crus-galli (ECHCG); assay: B1 Pre-emergence herbicidal activity; parameters: key to Pre-emergence herbicidal activity, ECHCG (damage score 0-5): 5=total damage to plant; 0=no damage to plant; settings: pre-emergence application, rate 1000 g/ha, evaluated after 13 days
In short: (§1)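 Sow in soil → 1 d glasshouse (24/16 °C, 14 h light, 65% RH) → spray pre-emergence (acetone/water 50:50, 0.5% Tween 20) → grow 13 d, water twice daily → score 0–5 (5 = total damage).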

[2] = system: Echinochloa crus-galli (ECHCG); assay: B2 Post-emergence herbicidal activity; parameters: key to Post-emergence herbicidal activity, ECHCG (damage score 0-5): 5=total damage to plant; 0=no damage to plant; settings: post-emergence application, rate 1000 g/ha, evaluated after 13 days
In short: (§2)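 Test seeds are sown in standard soil and raised for 8 days under controlled glasshouse conditions (24/16 °C, 14 h light, 65% humidity). Foliage is then sprayed with compound formulated in 50:50 acetone/water plus 0.5% Tween 20, and plants are rated 0–5 for damage after 13 days.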

[3] = system: Lolium perenne (LOLPE); assay: B1 Pre-emergence herbicidal activity; parameters: key to Pre-emergence herbicidal activity, LOLPE (damage score 0-5): 5=total damage to plant; 0=no damage to plant; settings: pre-emergence application, rate 1000 g/ha, evaluated after 13 days
In short: as §1

[4] = system: Setaria fabenri (SETFA); assay: B2 Post-emergence herbicidal activity; parameters: key: 5=total damage to plant; 0=no damage to plant; settings: post-emergence application, rate 1000 g/ha, evaluated after 13 days
In short: as §2

[5] = system: Triticum aestivium (TRZAW); assay: B2 Post-emergence herbicidal activity; parameters: key: 5=total damage to plant; 0=no damage to plant; settings: post-emergence application, rate 1000 g/ha, evaluated after 13 days
In short: as §2

[6] = system: Alopecurus myosuroides (ALOMY); assay: B2 Post-emergence herbicidal activity; parameters: key: 5=total damage to plant; 0=no damage to plant; settings: post-emergence application, rate 1000 g/ha, evaluated after 13 days
In short: as §2

[7] = system: Lolium perenne (LOLPE); assay: B2 Post-emergence herbicidal activity; settings: post-emergence application, rate 1000 g/ha, evaluated after 13 days
In short: as §2

[8] = system: Avena fatua (AVEFA); assay: B2 Post-emergence herbicidal activity; settings: post-emergence application, rate 1000 g/ha, evaluated after 13 days
In short: as §2

[9] = system: Setaria fabenr (SETFA); assay: B1 Pre-emergence herbicidal activity; parameters: key to Pre-emergence herbicidal activity, SETFA (damage score 0-5): 5=total damage to plant; 0=no damage to plant; settings: pre-emergence application, rate 1000 g/ha, evaluated after 13 days
In short: as §1

[10] = system: Triticum aestivium (TRZAW); assay: B1 Pre-emergence herbicidal activity; parameters: key: 5=total damage to plant; 0=no damage to plant; settings: pre-emergence application, rate 1000 g/ha, evaluated after 13 days
In short: as §1

[11] = system: Avena fatua (AVEFA); assay: B1 Pre-emergence herbicidal activity; parameters: key: 5=total damage to plant; 0=no damage to plant; settings: pre-emergence application, rate 1000 g/ha, evaluated after 13 days
In short: as §1

[12] = system: Alopecurus myosuroides (ALOMY); assay: B1 Pre-emergence herbicidal activity; parameters: key: 5=total damage to plant; 0=no damage to plant; settings: pre-emergence application, rate 1000 g/ha, evaluated after 13 days
In short: as §1

SMILES | Pre-emergence herbicidal activity, ECHCG (damage score 0-5) [1] | Post-emergence herbicidal activity, ECHCG (damage score 0-5) [2] | Pre-emergence herbicidal activity, LOLPE (damage score 0-5) [3] | Post-emergence herbicidal activity, SETFA (damage score 0-5) [4] | Post-emergence herbicidal activity, TRAZW (damage score 0-5) [5] | Post-emergence herbicidal activity, ALOMY (damage score 0-5) [6] | Post-emergence herbicidal activity, LOLPE (damage score 0-5) [7] | Post-emergence herbicidal activity, AVEFA (damage score 0-5) [8] | Pre-emergence herbicidal activity, SETFA (damage score 0-5) [9] | Pre-emergence herbicidal activity, TRAZW (damage score 0-5) [10] | Pre-emergence herbicidal activity, AVEFA (damage score 0-5) [11] | Pre-emergence herbicidal activity, ALOMY (damage score 0-5) [12]
CCC(=O)N(COCC(C)(C)C)c1ccc(-c2cncc(F)c2)nc1C(F)(F)F [Compound C99] | 2 | 4 | 1 | 5 | 0 | 0 | 2 | 2 | 5 | 0 | 1 | 0
O=C(Nc1ccc(-c2cncc(F)c2)nc1C(F)(F)F)c1ccccn1 [Compound C45] | 5 | 5 | 1 | 5 | 1 | 0 | 2 | 2 | 4 | 0 | 2 | 0
CCC(=O)N(CCCN(CC)CC)c1ccc(-c2cncc(F)c2)nc1C(F)(F)F [Compound C95] | 3 | 5 | 1 | 5 | 1 | 1 | 2 | 2 | 4 | 0 | 1 | 0
CC(C)C(=O)Nc1ccc(-c2cncnc2)nc1C(F)(F)F [Compound C8] | 4 | 4 | 2 | 5 | 2 | 3 | 2 | 4 | 5 | 0 | 3 | 0
O=C(Nc1ccc(-c2cncc(F)c2)nc1C(F)(F)F)C(Cl)(Cl)Cl [Compound C29] | 5 | 5 | 1 | 5 | 0 | 0 | 3 | 4 | 5 | 0 | 4 | 0
CC(C)=CC(=O)N(C(=O)C=C(C)C)c1ccc(-c2cncc(F)c2)nc1C(F)(F)F [Compound C38] | 4 | 4 | 0 | 5 | 0 | 0 | 2 | 3 | 5 | 0 | 0 | 0
O=C(Nc1ccc(-c2cncc(F)c2)nc1C(F)(F)F)c1ccccc1 [Compound C14] | 5 | 5 | 2 | 5 | 1 | 1 | 4 | 4 | 4 | 0 | 1 | 2
O=C(Nc1ccc(-c2cncnc2)nc1C(F)(F)F)C1CC1 [Compound C109] | 4 | 5 | 1 | 5 | 1 | 0 | 2 | 3 | 4 | 0 | 2 | 0
O=C(CCC1CCCC1)Nc1ccc(-c2cncc(F)c2)nc1C(F)(F)F [Compound C53] | 5 | 5 | 1 | 5 | 1 | 0 | 4 | 4 | 4 | 0 | 3 | 1
CCC(=O)N(C(=O)CC)c1ccc(-c2cncc(F)c2)nc1C(F)(F)F [Compound C44] | 5 | 5 | 1 | 5 | 0 | 1 | 3 | 3 | 4 | 0 | 2 | 0

Source: US11230538B2, “Herbicides” (SYNGENTA PARTICIPATIONS AG, priority 2016, dated 2022)
